What was measured:
DDC intoxicated mice [1] = experiment: Tocopherol quinone content in isolated mouse liver mitochondria; type: in vivo; conditions: DDC intoxicated mice with or without MitoQ
Procedure: In order to evaluate oxidative stress in control versus DDC-intoxicated mice with or without treatment by using antioxidants according to the invention, tocopherol quinone (TQ) content (Gille L. et al., 2004, Biochemic. Pharmacology, 68: 373-381) in isolated liver mitochondria (all tested animal groups prepared according to protocols in Example 3) is performed. The mouse liver mitochondria are prepared according to modified protocol from Staniek K. and Nohl H., 1999, Biochem. et Biophys. Acta, 1413: 70-80; Mela L. and Sietz S., 1979, Methods in Enzymology, Academic Press Inc.: 39-46, and TQ content is normalized to several parameters including protein and cytochrome concentrations and activity tests of complex I (NADH dehydrogenase), complex II (succinate dehydrogenase), complex III (cytochrome bcl) and complex IV (cytochrome oxidase).
A method for rat heart mitochondria (Staniek K. and Nohl H., 1999, Biochem. et Biophys. Acta, 1413: 70-80; Mela L. and Sietz S., 1979, Methods in Enzymology, Academic Press Inc.: 39-46) is adapted for mouse liver (ca. 10% weight compared to rat liver) isolated from various animal groups according to Example 3. The isolation of liver is performed at 4° C. […] The protein concentration is measured with the Biuret method (BSA as standard, at least […] protein needed for double determination) with expected yield of 3 to 6 mg. […]

HUH-7 cells = experiment: ROS production induced by Antimycin A, lucigenin chemiluminescence assay; type: cell-based, human; conditions: Antimycin A 0, 1 and 5 μM, MitoQ 0 to 1000 nmol, 3 hours at 37° C.
Procedure: HUH-7 cells are incubated in 6 well plates and stimulated with Antimycin A in concentration 0-25 μM (0, 1 and 5 μM) simultaneously with or without MitoQ in concentration range from 0 to 1000 nmol dissolved in DMEM (Gibco) for 3 hours at 37° C. The light reaction between superoxide and lucigenin is detected. X axis represents a concentration range of MitoQ [nM] whereas y axis the chemiluminescence signal expressed as average counts per minute [cpm] after normalization to cell number determined by cell counter.
Another approach allows measurement of the ROS production induced by antimycin A or rotenone by using lucigenin chemiluminescence assay (experimental set up as in Example 9) in e.g. HUH-7 or Tib-73. HUH-7 cells are incubated in 6 well plates and stimulated by using antimycin A in concentration 0-25 μM (preferably 0, 1 and 5 μM) simultaneously with or without MitoQ (or MitoS) in concentration range from 0 to 1000 nmol dissolved in DMEM (Gibco) for 3 hours at 37° C. […] The light reaction between superoxide and lucigenin is detected using a chemiluminescence reader (Lumistar, BMG laboratories, Germany). The chemiluminescence signal is expressed as average counts per minute and normalized to cell number as determined by cell counter (Casy Technology Instrument, Schärfe-System, Germany).

[2] = system: human epithelial cell cancer xenografts; experiment: Nude mice tumor xenografts; type: in vivo, mouse
Procedure: Tumor cell lines or primary tumors that are xenografted subcutaneously according to standard methods (Li K. et al., 2003, Cancer Res., 63(13): 3593-3597) include colon adenocarcinomas, invasive ductal carcinomas of the breast, small and non-small cell lung carcinoma, prostate tumors, pancreatic tumors and stomach tumors.
Tumor-derived cell lines (grown in DMEM/10% FBS) are harvested in log-phase growth, washed twice with PBS, resuspended in 1 ml PBS (2.5×10^7 cells/ml), and injected subcutaneously into the right flank of a nude mouse (Hsd: athymic nu/nu, Harlan Winkelmann; aged between 5 and 6 weeks) at 5×10^6 cells/mouse (0.2 ml). Tumor growth is monitored every other day for the indicated periods (depending on the cell type). Tumor size is determined by the product of two perpendicular diameters and the height above the skin surface.

[3] = fed in drinking water for 3 to 7 days, 500 μM or 1 mM (MitoVit E 500 μM); cited from earlier work
[4] = fed to mice on a long term basis; cited from earlier work
DDC intoxicated mice [5] = experiment: Long term (10 weeks) DDC intoxication, liver histology (cell ballooning, Mallory bodies); conditions: then 1 week without DDC with two injections of MitoQ
Procedure: Furthermore, single-label immunohistochemistry or double-label immunoflourescence microscopy is performed to detect MBs in tested animals.
In long term experiments by using mice intoxicated with DDC (for 8-10 weeks) the presence (or absence) of cell ballooning and/or Mallory bodies (MBs) in liver samples of treated animals is determined and compared to the control groups of animals.
In another set of experiments, after 10 weeks of DDC intoxication tested animals receive i.p. injections of MitoQ (1.25 mg/kg) twice within subsequent 7 days (day 1 and day 4 of the corresponding week), and are analysed by routine histology (standard haematoxylin/eosin staining according to Luna L. G., 1968, Manual of Histologic staining methods of the Armed Forces Institute of Pathology, 3rd edition. McGraw Hill, New York).

For MitoQ, the “tocopherol quinone (TQ) levels in liver mitochondria” value (DDC intoxicated mice [1]) was “elevated TQ levels in DDC intoxicated mice when compared to controls and mice treated with MitoQ”, the “ROS formation (lucigenin chemiluminescence)” value (HUH-7 cells) was “significant reduction in ROS formation” and the growth of tumors [2] was “reduced growth of tumors”. The “necrosis of the tumors” value [2] was “increased necrosis of the tumors”, the “vascularization of the tumor xenografts” value [2] was “decreased vascularization” and the “gross signs of toxicity” value [3] was “without any gross signs of toxicity”. For the same substance, the “concentrations within the brain, heart, liver, and muscle” value [4] was “potentially therapeutically effective concentrations”, the safety of feeding [4] was “fed safely” and the “accumulation of protoporphyrin in bile ducts” value (DDC intoxicated mice [5]) was “markedly reduced”.
